According to ChEMBL document CHEMBL3714739, “Compounds for the treatment of pain and screening methods therefor” (2008):

Assays:
[1] = target: T1, Mas-related G-protein coupled receptor member X2 (Homo sapiens) (UniProt Q96LB1); experiment: Activation of human MrgX2 receptor expressed in NIH/3T3 cells incubated for 5 days by beta-galactosidase reporter gene assay relative to STIA; type: cell-based; settings: NIH3T3
T1 sequence (whole entry): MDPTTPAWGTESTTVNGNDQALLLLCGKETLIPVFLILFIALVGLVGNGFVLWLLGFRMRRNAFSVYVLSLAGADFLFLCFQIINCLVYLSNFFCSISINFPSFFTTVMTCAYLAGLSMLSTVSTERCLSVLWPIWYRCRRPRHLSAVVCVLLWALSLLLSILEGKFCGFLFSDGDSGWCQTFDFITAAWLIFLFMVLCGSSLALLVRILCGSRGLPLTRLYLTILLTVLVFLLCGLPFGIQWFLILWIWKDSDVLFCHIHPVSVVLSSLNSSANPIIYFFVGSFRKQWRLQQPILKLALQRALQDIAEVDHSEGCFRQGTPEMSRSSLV

[2] = target: Mas-related G-protein coupled receptor member X1 (Homo sapiens) (UniProt Q96LB2); experiment: Activation of human MrgX1 receptor expressed in NIH/3T3 cells incubated for 5 days by beta-galactosidase reporter gene assay relative to Bam22; type: cell-based; settings: NIH3T3
Mas-related G-protein coupled receptor member X1 (Homo sapiens), sequence (Q96LB2 whole entry): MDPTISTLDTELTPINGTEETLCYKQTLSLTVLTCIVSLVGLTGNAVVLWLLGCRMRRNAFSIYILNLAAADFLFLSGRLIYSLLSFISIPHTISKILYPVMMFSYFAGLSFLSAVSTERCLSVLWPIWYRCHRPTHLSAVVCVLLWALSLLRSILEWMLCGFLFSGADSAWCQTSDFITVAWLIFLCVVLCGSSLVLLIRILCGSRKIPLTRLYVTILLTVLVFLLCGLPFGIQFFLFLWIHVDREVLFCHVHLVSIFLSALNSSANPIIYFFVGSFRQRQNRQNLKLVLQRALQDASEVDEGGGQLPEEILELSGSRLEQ

Efficacy [1] [%]	Efficacy [2] [%]	SMILES
6	203	N=C(N)NCCC[C@H](C(N)=O)n1c(-c2cccc(Oc3ccccc3)c2)nc2cc(C(=O)N3CCOCC3)ccc21
21	95	N=C(N)NCCC[C@@H](C(N)=O)n1c(-c2cccc(Oc3ccccc3)c2)nc2cc(C(=O)NCc3cccc(C(F)(F)F)c3)ccc21
2	221	N=C(N)NCCC[C@H](C(N)=O)n1c(-c2cccc(Oc3ccccc3)c2)nc2cc(C(=O)Nc3ccc4cn[nH]c4c3)ccc21
